Experimental data as given in PubChem BioAssay (NCI).
“And” between values parts separate entries of the source, which are not always exact repeats. Identical values can stand only once.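 Tested at 5 concentrations; 48 h exposure; 96-well plates; endpoints linearly interpolated, else capped at highest concentration. The concentration for 50% growth inhibition is given as GI50. TGI: total growth inhibition.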

Key:
Assay in all cases: inhibition of tumour cell growth, NCI panel, 48 h
SNB-75 CNS = tested on: SNB-75 CNS
SF-268 CNS = tested on: SF-268 CNS
HCC-2998 colon = tested on: HCC-2998 colon
HT29 colon = tested on: HT29 colon
EKVX NSCLC = tested on: EKVX NSCLC
OVCAR-5 ovarian = tested on: OVCAR-5 ovarian
RXF 393 renal = tested on: RXF 393 renal
OVCAR-3 ovarian = tested on: OVCAR-3 ovarian
HCT-116 colon = tested on: HCT-116 colon
786-0 renal = tested on: 786-0 renal

CS(=O)(=O)c1ccc(N/N=C/c2c(-c3ccc(S(C)(=O)=O)cc3)[nH]c3ccc(F)cc23)cc1
GI50 (SNB-75 CNS): 1.52 µM
TGI (SNB-75 CNS): 40 µM
GI50 (SF-268 CNS): 3.4 µM
TGI (SF-268 CNS): > 50 µM
GI50 (HCC-2998 colon): 10.8 µM
TGI (HCC-2998 colon): > 50 µM
GI50 (HT29 colon): 2.08 µM
TGI (HT29 colon): > 50 µM
GI50 (EKVX NSCLC): 40.2 µM
TGI (EKVX NSCLC): > 50 µM
GI50 (OVCAR-5 ovarian): > 50 µM
TGI (OVCAR-5 ovarian): > 50 µM
GI50 (RXF 393 renal): 0.904 µM
TGI (RXF 393 renal): 1.94 µM
GI50 (OVCAR-3 ovarian): 2.23 µM
TGI (OVCAR-3 ovarian): > 50 µM
GI50 (HCT-116 colon): 2.68 µM
TGI (HCT-116 colon): > 50 µM
GI50 (786-0 renal): 1.69 µM
TGI (786-0 renal): > 50 µM

CC1(C)CC23C(=O)N(c4ccccc4)C(=Nc4ccccc4)NC2=CC(C#N)=C(C#N)C3O1 (stereo not given)
TGI (SNB-75 CNS): > 100 µM
TGI (SF-268 CNS): > 100 µM
TGI (HCC-2998 colon): > 100 µM
TGI (HT29 colon): > 100 µM
TGI (EKVX NSCLC): > 100 µM
TGI (OVCAR-5 ovarian): > 100 µM
TGI (RXF 393 renal): > 100 µM
TGI (OVCAR-3 ovarian): > 100 µM
TGI (HCT-116 colon): > 100 µM
TGI (786-0 renal): > 100 µM

COc1cc(N2CCC(N3CCN(C)CC3)CC2)ccc1Nc1ncc(Cl)c(Nc2ccccc2P(C)(C)=O)n1
GI50 (SNB-75 CNS): 1.66 µM
TGI (SNB-75 CNS): 4.83 µM
GI50 (SF-268 CNS): 1.34 µM
TGI (SF-268 CNS): 14 µM
GI50 (HCC-2998 colon): 3.99 µM
TGI (HCC-2998 colon): > 100 µM
GI50 (HT29 colon): 0.204 µM
TGI (HT29 colon): 4.81 µM
GI50 (EKVX NSCLC): 0.472 µM
TGI (EKVX NSCLC): > 100 µM
GI50 (OVCAR-5 ovarian): 0.379 µM
TGI (OVCAR-5 ovarian): > 100 µM
GI50 (RXF 393 renal): 0.642 µM
TGI (RXF 393 renal): 2.4 µM
GI50 (OVCAR-3 ovarian): 2.15 µM
TGI (OVCAR-3 ovarian): 38.2 µM
GI50 (HCT-116 colon): 1.09 µM
TGI (HCT-116 colon): 13.3 µM
GI50 (786-0 renal): 1.12 µM
TGI (786-0 renal): 7.59 µM

COc1ccc(-c2cc(-c3ccc(Nc4nc(Nc5ccc(Cl)cc5)nc(Nc5ccc(Cl)cc5)n4)cc3)no2)cc1
GI50 (SNB-75 CNS): 35.2 µM
TGI (SNB-75 CNS): > 100 µM
GI50 (SF-268 CNS): 9.3 µM
TGI (SF-268 CNS): 38.2 µM
GI50 (HCC-2998 colon): 2.37 µM
TGI (HCC-2998 colon): 8.25 µM
GI50 (HT29 colon): 15.1 µM
TGI (HT29 colon): 59.9 µM
GI50 (EKVX NSCLC): 10.2 µM
TGI (EKVX NSCLC): 85.6 µM
GI50 (OVCAR-5 ovarian): 19.1 µM
TGI (OVCAR-5 ovarian): 73.5 µM
GI50 (RXF 393 renal): 3.67 µM
TGI (RXF 393 renal): 20.3 µM
GI50 (OVCAR-3 ovarian): 11.2 µM
TGI (OVCAR-3 ovarian): 38.9 µM
GI50 (HCT-116 colon): 4.33 µM
TGI (HCT-116 colon): 17.1 µM
GI50 (786-0 renal): 5.42 µM
TGI (786-0 renal): 25.5 µM

CC[C@H](C)c1occ2c(O)c(C(=O)O)c(=O)cc-2c1C
TGI (SNB-75 CNS): > 100 µM
TGI (SF-268 CNS): > 100 µM
TGI (HCC-2998 colon): 36.8 µM
TGI (HT29 colon): 62.3 µM
TGI (EKVX NSCLC): > 100 µM
TGI (OVCAR-5 ovarian): 36.7 µM
TGI (RXF 393 renal): 33.5 µM
TGI (OVCAR-3 ovarian): 42.4 µM
TGI (HCT-116 colon): 41.5 µM
TGI (786-0 renal): > 100 µM

O=S(=O)(NCCNc1cc(-c2cn(-c3ccccc3)nc2-c2cccc(O)c2)ccn1)c1ccc(C(F)(F)F)cc1
GI50 (SNB-75 CNS): 2.63 µM
TGI (SNB-75 CNS): 14 µM
GI50 (SF-268 CNS): 3.42 µM
TGI (SF-268 CNS): 17.3 µM
GI50 (HCC-2998 colon): 2.04 µM
TGI (HCC-2998 colon): 4.45 µM
GI50 (HT29 colon): 2.04 µM
TGI (HT29 colon): 5.44 µM
GI50 (EKVX NSCLC): 2.25 µM
TGI (EKVX NSCLC): 11.8 µM
GI50 (OVCAR-5 ovarian): 2.53 µM
TGI (OVCAR-5 ovarian): 13.7 µM
GI50 (RXF 393 renal): 2.52 µM
TGI (RXF 393 renal): 10 µM
GI50 (OVCAR-3 ovarian): 2.2 µM
TGI (OVCAR-3 ovarian): 5.58 µM
GI50 (HCT-116 colon): 2.29 µM
TGI (HCT-116 colon): 7.94 µM
GI50 (786-0 renal): 1.72 µM
TGI (786-0 renal): 4.45 µM

O=C1C=C(Nc2ccccc2)c2ncccc2C1=O
GI50 (SNB-75 CNS): 1.58 µM
TGI (SNB-75 CNS): 2.94 µM
GI50 (SF-268 CNS): 0.446 µM
TGI (SF-268 CNS): 1.8 µM
GI50 (HCC-2998 colon): 1.55 µM
TGI (HCC-2998 colon): 3 µM
GI50 (HT29 colon): 2.78 µM
TGI (HT29 colon): > 26.7 µM
GI50 (EKVX NSCLC): 1.37 µM
TGI (EKVX NSCLC): 2.81 µM
GI50 (OVCAR-5 ovarian): 1.74 µM
TGI (OVCAR-5 ovarian): 3.4 µM
GI50 (RXF 393 renal): 1.4 µM
TGI (RXF 393 renal): 2.72 µM
GI50 (OVCAR-3 ovarian): 0.28 µM
TGI (OVCAR-3 ovarian): 0.825 µM
GI50 (HCT-116 colon): 0.291 µM
TGI (HCT-116 colon): 0.883 µM
GI50 (786-0 renal): 1.52 µM
TGI (786-0 renal): 3.05 µM

CCc1ccccc1NC(=O)/C(CC(=O)c1c(C)n([O-])c2ccccc2[n+]1=O)=N\NS(=O)(=O)c1ccc(C)cc1
TGI (SNB-75 CNS): > 100 µM
TGI (SF-268 CNS): > 100 µM
TGI (HCC-2998 colon): > 100 µM
TGI (HT29 colon): > 100 µM
TGI (EKVX NSCLC): > 100 µM
TGI (OVCAR-5 ovarian): > 100 µM
TGI (RXF 393 renal): > 100 µM
TGI (OVCAR-3 ovarian): 80.2 µM
TGI (HCT-116 colon): 55.3 µM
TGI (786-0 renal): > 100 µM

CCN(Cc1ccc(F)cc1)c1ccc(CO)c(Cl)c1
GI50 (SNB-75 CNS): 4.58 µM
TGI (SNB-75 CNS): 39.6 µM
GI50 (SF-268 CNS): 19.8 µM
TGI (SF-268 CNS): > 55.7 µM
GI50 (HCC-2998 colon): 10.3 µM
TGI (HCC-2998 colon): 28.3 µM
GI50 (HT29 colon): 3.02 µM
TGI (HT29 colon): 16.1 µM
GI50 (EKVX NSCLC): 17.5 µM
TGI (EKVX NSCLC): 57.5 µM
GI50 (OVCAR-5 ovarian): 0.103 µM
TGI (OVCAR-5 ovarian): 0.525 µM
GI50 (RXF 393 renal): 2.81 µM
TGI (RXF 393 renal): 21.2 µM
GI50 (OVCAR-3 ovarian): 0.704 µM
TGI (OVCAR-3 ovarian): 6.18 µM
GI50 (HCT-116 colon): 0.0661 µM
TGI (HCT-116 colon): 3.02 µM
GI50 (786-0 renal): 4.6 µM
TGI (786-0 renal): 23.3 µM

O=C(OC(C(=O)O)C(OC(=O)c1ccccc1)C(=O)O)c1ccccc1 (stereo not given) (tested in a mixture with another compound)
TGI (SNB-75 CNS): > 100 µM and 56 µM
TGI (SF-268 CNS): > 100 µM
TGI (HCC-2998 colon): > 100 µM
TGI (HT29 colon): > 100 µM
TGI (EKVX NSCLC): > 100 µM
TGI (OVCAR-5 ovarian): > 100 µM
TGI (RXF 393 renal): > 100 µM
TGI (OVCAR-3 ovarian): > 69.1 µM
TGI (HCT-116 colon): 55 µM
TGI (786-0 renal): > 100 µM

C[C@]12CCC[C@H](OC=O)C1(O)C[C@H](C(=O)O)CC2 (stereo not given in full)
TGI (SNB-75 CNS): > 100 µM
TGI (SF-268 CNS): > 100 µM
TGI (HCC-2998 colon): > 100 µM
TGI (HT29 colon): > 100 µM
TGI (EKVX NSCLC): 40.2 µM
TGI (OVCAR-5 ovarian): > 100 µM
TGI (RXF 393 renal): > 100 µM
TGI (OVCAR-3 ovarian): > 100 µM
TGI (HCT-116 colon): > 100 µM
TGI (786-0 renal): > 100 µM

COc1ccc(OC)c(/C=C/c2nnc(Nc3ccc(Cl)cc3)o2)c1
GI50 (SNB-75 CNS): 2.26 µM
TGI (SNB-75 CNS): 7.94 µM
GI50 (SF-268 CNS): 7.6 µM
TGI (SF-268 CNS): 37.9 µM
GI50 (HCC-2998 colon): > 100 µM
TGI (HCC-2998 colon): > 100 µM
GI50 (HT29 colon): 9.44 µM
TGI (HT29 colon): 28.3 µM
GI50 (EKVX NSCLC): 40.5 µM
TGI (EKVX NSCLC): > 100 µM
GI50 (OVCAR-5 ovarian): 32.5 µM
TGI (OVCAR-5 ovarian): > 100 µM
GI50 (RXF 393 renal): 2.71 µM
TGI (RXF 393 renal): 7.92 µM
GI50 (OVCAR-3 ovarian): 3.55 µM
TGI (OVCAR-3 ovarian): 15.9 µM
GI50 (HCT-116 colon): 2.97 µM
TGI (HCT-116 colon): 13.1 µM
GI50 (786-0 renal): 2.67 µM
TGI (786-0 renal): 7.6 µM

CCCCCCN(CCCCCC)C(=N)c1ccnc2ccccc12
GI50 (SNB-75 CNS): 4.68 µM
TGI (SNB-75 CNS): 17.3 µM
GI50 (SF-268 CNS): 13 µM
TGI (SF-268 CNS): 26.5 µM
GI50 (HCC-2998 colon): 1.78 µM
TGI (HCC-2998 colon): 3.54 µM
GI50 (HT29 colon): 0.835 µM
TGI (HT29 colon): 7.88 µM
GI50 (EKVX NSCLC): 8.58 µM
TGI (EKVX NSCLC): 22.9 µM
GI50 (OVCAR-5 ovarian): 9.64 µM
TGI (OVCAR-5 ovarian): 21.7 µM
GI50 (RXF 393 renal): 4.57 µM
TGI (RXF 393 renal): 15.5 µM
GI50 (OVCAR-3 ovarian): 10.3 µM
TGI (OVCAR-3 ovarian): 22.4 µM
GI50 (HCT-116 colon): 1.94 µM
TGI (HCT-116 colon): 14.1 µM
GI50 (786-0 renal): 2.82 µM
TGI (786-0 renal): 12.5 µM

Nc1ncc(-c2cnn(C3CCNCC3)c2)cc1-c1nc2ccccc2o1
GI50 (SNB-75 CNS): 1.31 µM
TGI (SNB-75 CNS): 2.67 µM
GI50 (SF-268 CNS): 1.74 µM
TGI (SF-268 CNS): 4.58 µM
GI50 (HCC-2998 colon): 1.18 µM
TGI (HCC-2998 colon): 3.09 µM
GI50 (HT29 colon): 0.441 µM
TGI (HT29 colon): 2.63 µM
GI50 (EKVX NSCLC): 4.4 µM
TGI (EKVX NSCLC): 17.8 µM
GI50 (OVCAR-5 ovarian): 3.28 µM
TGI (OVCAR-5 ovarian): 11.5 µM
GI50 (RXF 393 renal): 0.485 µM
TGI (RXF 393 renal): 2.25 µM
GI50 (OVCAR-3 ovarian): 1.53 µM
TGI (OVCAR-3 ovarian): 3.52 µM
GI50 (HCT-116 colon): 0.616 µM
TGI (HCT-116 colon): 2.03 µM
GI50 (786-0 renal): 1.4 µM
TGI (786-0 renal): 2.92 µM
